Assay results as given in patent US20040116499A1, “Indole derivatives having an inhibitory effect on protein kinases” (priority 2001, published 2004).

Tested on: protein kinase C
Experiment: Inhibition of the protein kinase C activity in vitro (protein kinase C assay kit, Calbiochem)
Format: biochemical
Conditions: both isomers as well as the racemate; test not specified at the place
Method: For testing the inhibitory effect on protein kinase C a commercially available protein kinase C assay kit (e.g. Calbiochem, Cat. No. 538484) may be employed. For this purpose the phosphorylation of a pseudosubstrate is measured by means of a specific antibody. The substances to be investigated are employed as solution in dimethylsulfoxid. […] By means of this assay the effects on individual PKC isoforms and the inhibition thereof may be tested. The effective concentration may be then determined at a given ATP concentration.
According to this Calbiochem kit it is worked with a batch of 200 μl/well in the following manner: 13 μl of buffer solution, 26 μl of 1 mM ATP (pH 7.0), 13 μl of phosphatidyl serine (500 μg/ml), 13 μl of 20 mM CaCl2, 65 μl of H2O and 55 μl of H2O, respectively, and 10 μl of inhibitor solution in DMSO are mixed, wherein 108 μl are added to an uncoated well. 12 μl of PKC solution (protein content and activity respectively of 0.1 U/12 μl) are added thereto and 100 μl thereof are added to the coated microtiter plate. After incubation for 20 min at room temperature 100 μl stop solution is added. Then washing is done five times with washing solution. […] Thereafter there is again a treatment with 100 μl of stop solution, and then the measurement is done in the Elisa reader at 492 nm. […]

- inhibitory effect: distinct inhibitory effect
SMILES: O=C(O)C1Cc2c([nH]c3ccccc23)C2(N1)C(=O)C(c1c[nH]c3ccccc13)=C(c1c[nH]c3ccccc13)C2=O (stereo not shown) [Pityriarubine A]
